From ChEMBL document CHEMBL1149429, “Privileged structure-based quinazolinone natural product-templated libraries: identification of novel tubulin polymerization inhibitors” (Bioorg Med Chem Lett, 2006)
The source made the active and inactive calls. No cut-off for these calls is given here.

Experiments:
MDA-MB-231 = test: Antiproliferative activity against MDA-MB-231 cell line by MTS assay; format: functional, cell-based; conditions: Homo sapiens
SF-268 = test: Antiproliferative activity against SF268 cell line by MTS assay; format: functional, cell-based; conditions: Homo sapiens
A549 = test: Antiproliferative activity against A549 cell line by MTS assay; format: functional, cell-based; conditions: Homo sapiens
DU-145 = test: Antiproliferative activity against DU145 cell line by MTS assay; format: functional, cell-based; conditions: Homo sapiens
Tubulin (Homo sapiens) = Tubulin (Homo sapiens) (UniProt P68371+Q9H4B7+P0DPH7+P68366+Q13509+Q71U36+P04350+Q3ZCM7+P07437+P68363+Q9BQE3+Q6PEY2+Q13885+Q9BVA1+Q9BUF5); test: Inhibitory activity against tubulin polymerization; format: protein-complex assay
HMEC = test: Antiproliferative activity against HMEC cell line by MTS assay; format: functional, cell-based; conditions: Homo sapiens
NCI-H460 = test: Antiproliferative activity against NCI-H460 cell line by MTS assay; format: functional, cell-based; conditions: Homo sapiens
Tubulin = test: Effect on induction of mitotic arrest by phosphohistone H3 (pH3) assay; format: functional

SMILES	IC50 (MDA-MB-231) [µM]	IC50 (A549) [µM]	IC50 (DU-145) [µM]	Activity (Tubulin (Homo sapiens))	IC50 (NCI-H460) [nM]	EC50 (Tubulin) [nM]	IC50 (SF-268) [µM]	IC50 (HMEC) [µM]
COc1cc(/C=C2\CCCn3c2nc2ccc(C)cc2c3=O)cc(OC)c1O	> 20	> 20	14.7	Active	3200		11.5	> 20
COc1cc(/C=C2\CCCn3c2nc2c(C)cccc2c3=O)cc(OC)c1O	11.2	3.17	2.63	Active	1500	1640	3.48	> 20
COc1cc(/C=C2\CCCn3c2nc2c(C)cc(C)cc2c3=O)cc(OC)c1O	2.09	0.55	0.79	Active	240	260	0.83	> 20
COc1cc(/C=C2\CCCn3c2nc2ccc(I)cc2c3=O)cc(OC)c1O	> 20	10.6	10.3	Active	4310	10600	11.2	> 20
COc1cc(/C=C2\CCCn3c2nc2c(O)cccc2c3=O)cc(OC)c1O	7.72	5.49	3.11	Active	1360	1160	4.76	> 20
COc1cc(/C=C2\CCCn3c2nc2c(OC)cccc2c3=O)cc(OC)c1O	1.3	0.69	0.51	Active	330	540	0.79	> 20
COc1cc(/C=C2\CCCn3c2nc2ccc(F)cc2c3=O)cc(OC)c1O	> 20	9.43	14.2	Active	3910		14.1	> 20

More lines, main results first:

IC50 (MDA-MB-231) [µM]	IC50 (A549) [µM]	IC50 (DU-145) [µM]	Activity (Tubulin (Homo sapiens))	IC50 (NCI-H460) [nM]	EC50 (Tubulin) [nM]	SMILES	IC50 (SF-268) [µM]	IC50 (HMEC) [µM]
	0.013			12	31	CC(=O)O[C@H]1C(=O)[C@@]2(C)[C@H]([C@H](OC(=O)c3ccccc3)[C@]3(O)C[C@H](OC(=O)[C@H](O)[C@@H](NC(=O)c4ccccc4)c4ccccc4)C(C)=C1C3(C)C)[C@]1(OC(C)=O)CO[C@@H]1C[C@@H]2O [PACLITAXEL]		
> 20	> 20	> 20	Active	14900		COc1cc(/C=C2\CCCn3c2nc2ccc(O)cc2c3=O)cc(OC)c1O	> 20	> 20
> 20	> 20	18.3	Active	8630		COc1cc(/C=C2\CCCn3c2nc2ccc(Cl)cc2c3=O)cc(OC)c1O	18.6	> 20
> 20	> 20	10.3	Active	3710		COc1ccc2nc3n(c(=O)c2c1)CCC/C3=C\c1cc(OC)c(O)c(OC)c1	> 20	> 20
> 20	11.7	8.47	Active	1980	2380	COc1cc(/C=C2\CCCn3c2nc2ccc(Br)cc2c3=O)cc(OC)c1O	6.72	> 20
